# Measured values from patent US20220289698A1, “INHIBITORS OF HUMAN ATGL” (Karl-Franzens-Universität Graz, priority 2019, published 2022).
# Read-outs that look alike come from different tables or passages of the source.
# Tested on: differentiated hMADS adipocytes
# Experiment: Isoproterenol-stimulated lipolysis in differentiated hMADS adipocytes
# Assay type: cell-based
# Conditions: Homo sapiens, Adipocyte, 2 h pretreatment, 1 μM isoproterenol 1 h
# Protocol: Human differentiated hMADS adipocytes were pretreated with DMSO or ATGL inhibitors for 2 h. Subsequently, lipolysis was stimulated with 1 μM Isoproterenol for 1 h and fatty acid release was determined from media via NEFA Reagent (Wako Diagnostics). Samples were measured in triplicates.
# Human differentiated hMADS adipocytes were pretreated with DMSO or ATGL inhibitors for 2 h. Subsequently, lipolysis was stimulated with 1 μM Isoproterenol for 1 h and glycerol release was determined from media via Free glycerol reagent (Sigma Aldrich). Samples were measured in triplicates.
compound,measurement,setting,value
"CCOc1ccc(-c2nc(C(=O)OCc3cccs3)cs2)cc1 [Example 152, Thiophen-2-ylmethyl 2-(4-ethoxyphenyl)thiazole-4-carboxylate]",IC50,"fatty acid release, read-out: IC50 hMADS FA release",12 µM
same,IC50,"glycerol release, read-out: IC50 hMADS glycerol release",10 µM
